Assay results taken from ChEMBL document CHEMBL3046732, “Synthesis and biological evaluation of new [1,3,4]thiadiazepino[7,6-b]quinolin-2-amines as potent anti-microbial agents” (2013).

Legend:
[1] = tested on: Salmonella typhimurium; test: Antimicrobial activity against Salmonella enterica subsp. enterica serovar Typhimurium assessed as growth inhibition by microdilution method
[2] = tested on: Aspergillus niger; test: Antimicrobial activity against Aspergillus niger assessed as growth inhibition by microdilution method; type: functional
[3] = tested on: Streptococcus pyogenes; test: Antimicrobial activity against Streptococcus pyogenes assessed as growth inhibition by microdilution method
[4] = tested on: Alternaria alternata; test: Antimicrobial activity against Alternaria alternata assessed as growth inhibition by microdilution method; type: functional
[5] = tested on: Escherichia coli; test: Antimicrobial activity against Escherichia coli assessed as growth inhibition by microdilution method
[6] = tested on: Staphylococcus aureus; test: Antimicrobial activity against Staphylococcus aureus assessed as growth inhibition by microdilution method
[7] = tested on: Klebsiella aerogenes; test: Antimicrobial activity against Enterobacter aerogenes assessed as growth inhibition by microdilution method
[8] = tested on: Curvularia australiensis; test: Antimicrobial activity against Curvularia australiensis assessed as growth inhibition by microdilution method; type: functional
[9] = tested on: Trichoderma reesei; test: Antimicrobial activity against Trichoderma reesei assessed as growth inhibition by microdilution method; type: functional
[10] = tested on: Aspergillus flavus; test: Antimicrobial activity against Aspergillus flavus assessed as growth inhibition by microdilution method; type: functional
[11] = tested on: Bacillus subtilis; test: Antimicrobial activity against Bacillus subtilis assessed as growth inhibition by microdilution method

MIC [1] [µg/mL]	MIC [2] [µg/mL]	MIC [3] [µg/mL]	MIC [4] [µg/mL]	MIC [5] [µg/mL]	MIC [6] [µg/mL]	MIC [7] [µg/mL]	MIC [8] [µg/mL]	MIC [9] [µg/mL]	MIC [10] [µg/mL]	MIC [11] [µg/mL]	SMILES
60	500	1000	500	1000	1000	500	500	500	500	60	Cc1c(Cl)ccc2cc3c(nc12)SC(NCc1ccccc1)=NN=C3
125	1000	250	1000	500	250	250	1000	1000	1000	250	Cc1c(Cl)ccc2cc3c(nc12)SC(NCCN1CCOCC1)=NN=C3
1000	1000	1000	500	1000	1000	1000	1000	250	500	1000	Cc1cccc(C)c1NC1=NN=Cc2cc3cccc(C)c3nc2S1
1000	1000	1000	500	1000	1000	1000	500	250	500	1000	Cc1ccc(NC2=NN=Cc3cc4cccc(C)c4nc3S2)c(C)c1
1000	500	500	500	500	500	1000	500	500	1000	250	CCc1ccc(NC2=NN=Cc3cc4cccc(C)c4nc3S2)cc1
> 1000	500	> 1000	1000	> 1000	> 1000	1000	1000	1000	1000	> 1000	Cc1cccc2cc3c(nc12)SC(NCc1ccccc1)=NN=C3
1000	500	1000	500	1000	1000	1000	500	250	250	1000	Cc1cccc2cc3c(nc12)SC(NCCN1CCOCC1)=NN=C3
> 1000	1000	60	250	60	> 1000	60	1000	250	500	125	Cc1c(Cl)ccc2cc3c(nc12)SC(Nc1ccccc1)=NN=C3
500	500	60	500	500	500	500	1000	250	500	60	Cc1c(Cl)ccc2cc3c(nc12)SC(Nc1ccccc1F)=NN=C3
1000	1000	1000	1000	500	1000	500	1000	250	1000	60	Cc1c(Cl)ccc2cc3c(nc12)SC(Nc1cccc(F)c1)=NN=C3
1000	500	60	250	500	1000	1000	500	250	500	125	Cc1c(Cl)ccc2cc3c(nc12)SC(Nc1ccc(F)cc1)=NN=C3
500	500	500	60	500	500	500	250	60	500	500	Cc1c(Cl)ccc2cc3c(nc12)SC(Nc1ccccc1Cl)=NN=C3
1000	500	125	500	60	500	1000	1000	250	500	125	Cc1c(Cl)ccc2cc3c(nc12)SC(Nc1cccc(Cl)c1)=NN=C3
1000	500	500	250	500	1000	500	500	125	1000	60	Cc1c(Cl)ccc2cc3c(nc12)SC(Nc1ccc(Cl)cc1)=NN=C3
500	500	250	250	250	500	250	500	60	1000	60	Cc1ccccc1NC1=NN=Cc2cc3ccc(Cl)c(C)c3nc2S1
500	1000	250	500	250	500	500	1000	250	1000	125	Cc1ccc(NC2=NN=Cc3cc4ccc(Cl)c(C)c4nc3S2)cc1
1000	500	60	125	125	500	500	500	250	500	60	Cc1cccc(C)c1NC1=NN=Cc2cc3ccc(Cl)c(C)c3nc2S1
500	500	60	250	60	500	500	500	250	500	30	Cc1ccc(NC2=NN=Cc3cc4ccc(Cl)c(C)c4nc3S2)c(C)c1
1000	1000	500	1000	1000	1000	1000	> 1000	1000	> 1000	125	CCc1ccc(NC2=NN=Cc3cc4ccc(Cl)c(C)c4nc3S2)cc1
1000		1000		1000	1000	1000				1000	O=C(N[C@H](CO)[C@H](O)c1ccc([N+](=O)[O-])cc1)C(Cl)Cl [CHLORAMPHENICOL]
